Assay results taken from patent US20020165270A1, “Use of a pharmaceutical composition for treating and/or preventing ischemia” (priority 1997, published 2002).

How the values were obtained:
[1] = test system: complex I of the mitochondria; assay: Protection of complex I inhibited by Amytal, measured via the RCR; format: biochemical; conditions: for Protection of complex I (%): complex I 58% inhibited by 0.5 mM Amytal, 60 minute incubation, Ginkor Fort 0.3 mg/ml, Bilobalide 0.8 μg/ml, Reparil 75 ng/ml, Nafthoquinone 10^−7 M, Praxilene 10^−7 M, no medicament = 0%
Protocol: (§1) The process of the oxidative phosphorylation of ATP is a complex process which involves different enzyme complexes or electron transporters, which generate a proton gradient (complexes I, III and IV), ATP synthases (complex V), which is directly responsible for synthesizing ATP, and adenine translocase, which is the transporter which is required for importing ADP and exporting ATP (FIG. 4).
Complex I of the mitochondria was 58% inhibited by the presence of 0.5 mM Amytal. Under these conditions, the presence of the molecules at the indicated concentrations (60 minute incubation) results in an inhibition which is markedly less pronounced, with this having been expressed in percentage protection as compared with the mitochondria without medicament, which are regarded as having 0% protection.

brain mitochondria [2] = assay: RCR of brain mitochondria of orally treated rats, normal conditions; format: in vivo, rat
Protocol: (§2) Different concentrations of active compounds of the invention (bilobalide) were tested on the RCR of the mitochondria which were isolated from rat brains. Five concentrations were employed: 4, 6, 8, 10 and 12 mg/kg of treated patient (rat). The rats were given these doses of bilobalide orally for 14 days. The mitochondria were isolated using the method described by Nowicki et al. (J. Cerebral Blood Flow and Metabolism, 2, pp. 33-40 (1982)). The respiration of the mitochondria is measured in a Clark oxygen electrode which is connected to a recording device. The RCR represents the respiratory control. It denotes the ratio between the consumption of oxygen in the presence of endogenous substrates (glutamate/malate) and the consumption after the ADP has been phosphorylated to ATP. This technique was developed by Chance and Williams (Nature, 175, pp. 1120-1121 (1955)). A dosedependent effect is obtained, with an increase of the RCR, of 3.7 in the case of the controls, to an RCR of 4.6 in the case of the 8 and 10 mg/kg concentrations. A maximum increase of 24% is obtained at 10 mg/kg.

brain mitochondria [3] = assay: RCR of brain mitochondria of treated rats after 15 minute ischemia; format: in vivo, rat; conditions: 10 mg/kg per os for 14 days; 15 minute ischemia by decapitation; glutamate/malate; controls 3
Protocol: A 15 minute ischemia was performed on control rats and rats which have been treated with active compounds of the invention (bilobalides) for 14 days. The ischemia is performed by decapitation. The rats were treated per os with bilobalide doses of 10 mg/kg for 14 days. When the RCR is measured in the presence of glutamate/malate in the case of a 15 minute ischemia, an RCR of 3 is observed in the case of the controls, with an RCR of 3.9 being observed in the case of the treated rats. The active compound therefore has a protective action on the decrease in respiratory activity which is induced by the ischemia. This protection is manifested through the activity of complex I and of the mitochondrial transport chain. The level of respiratory control which is measured in the presence of glutamate/malate indirectly mirrors the activity of complex I of the electron transfer chain.

mitochondrial complex I = assay: Activity of mitochondrial complex I (ferricytochrome C reduction) in brain mitochondria of treated rats; format: in vivo, rat; conditions: 10 mg/kg per os for 14 days; after 15 minute ischemia of the brain; controls 36
Protocol: The measurement carried out on the mitochondrial complex I was performed by first of all sonicating the mitochondria in order to enable the assay substrates to gain access to the complex I. The latter is assayed by following the reduction of ferricytochrome C at 550 nm. The mitochondrial suspension, which is present in a […] K phosphate buffer, pH 7.4, containing MgCl2, 10 μm of cytochrome C and 2.5 mg of bovine albumin/ml, is sonicated for 30 seconds at 0° C. 2 mM of KCW [sic] is added and the reaction is started by adding 7.5 mM NADH. The mitochondria are incubated at 37° C. and the reduction of the ferricyanide [sic] is followed at 550 nm. A correction is made for the reduction of the cytochrome C in the presence of rotenone, which inhibits complex I. The results are expressed in μmol of ferricytochrome C reduced per minute.
The activity of complex I was measured on the mitochondria of rats which had been treated per os for 14 days with 10 mg of bilobalide/kg, and after a 15minute ischemia of the brain. An activity of 36 mU/mg of protein is obtained in the case of the control rats, whereas the mitochondria from treated rats have an activity of 44 mU/mg of protein.

liver mitochondria [4] = assay: RCR of liver mitochondria of rats treated per os; format: in vivo; conditions: rat liver mitochondria; 8 mg/kg per os for 14 days; controls 7.6
Protocol: (§3) The active compound of the invention (bilobalide) was administered per os to rats for 14 days at concentrations of 8 mg/kg of patient (rat). The liver mitochondria of these rats were isolated using the method described by Remacle (J. Cell. Biol. 79, 291, 1978). […] A 10 minute ischemia was performed on the livers by perfusion in a medium consisting of 0.137 M NaCl, 5.4 mM KCl, 0.8 mM MgSO4, 11 mM glucose, 0.34 mM Na2HP03, 24.4 mM NaHCO3, 6.35 mM KH2PO4 and 8 mg of bilobalide/l. The medium is first of all degassed under an atmosphere containing 95% N2 and 5% CO2. The mitochondria are isolated and their respiratory activity is determined.

liver mitochondria [5] = assay: RCR of liver mitochondria after 10 minute ischemia of the perfused liver; format: in vivo, rat; conditions: 8 mg/kg per os for 14 days; 10 minute liver ischemia, perfusion medium with 8 mg of bilobalide/l; controls 3.73
Protocol: as §3
For the controls, the rats were given water for 14 days and the livers were perfused with the same solution as for the tests.

[6] = test system: mitochondria isolated from the livers of untreated rats; assay: RCR of mitochondria isolated from livers of untreated rats, preincubated one hour with the medicaments; format: biochemical, rat; conditions: for Protective effect on the RCR (%): class I molecules, final concentrations: Ginkor Fort 0.3 mg/ml, Bilobalide 0.8 μg/ml, Reparil 75 ng/ml, Naphthoquinone 10^−7 M, Praxilene 10^−7 M, one hour preincubation; for way in which the RCR is increased (class I / class II): liver mitochondria of untreated rats preincubated for one hour
Protocol: as §2
Each of the active compounds of the invention can, like bilobalide, increase the RCR of mitochondria which have been isolated from the livers of untreated rats when the mitochondria are preincubated for one hour in the presence of these medicaments. The active compounds can therefore act directly on the mitochondria.

[7] = test system: complex III of the mitochondria; assay: Protection of complex III inhibited by a specific inhibitor, measured via the RCR; format: biochemical; conditions: Ginkor Fort 0.3 mg/ml, Bilobalide 0.8 μg/ml, Reparil 75 ng/ml, Nafthoquinone 10^−7 M, Praxilene 10^−7 M
From the text: as §1

Molecule	Protective effect on the RCR (%) [6]	way in which the RCR is increased (class I / class II) [6]	Protection of complex I (%) [1]	Protection of complex III (%) [7]	further results
CCC1(CCC(C)C)C(=O)NC(=O)NC1=O [Amytal]	–	–	–	–	inhibition of complex I of the mitochondria ([1]; 0.5 mM Amytal): 58%
CC(C)(C)[C@]1(O)CC2OC(=O)CC23C(=O)OC2OC(=O)[C@H](O)C231 (stereo partly drawn) [Bilobalide, bilobalide]	+22.7%	increase the RCR by decreasing stage 4 of respiration	27.5%	47.9%	maximum increase of the RCR (brain mitochondria [2]; 10 mg/kg orally for 14 days, versus controls): 24%; RCR (brain mitochondria [2]; rat brain mitochondria, 8 and 10 mg/kg orally for 14 days, glutamate/malate, controls 3.7): 4.6; RCR (brain mitochondria [3]): 3.9; activity of complex I (mitochondrial complex I): 44 mU/mg of protein; RCR (liver mitochondria [4]): 13.25; RCR (liver mitochondria [5]): 5.24
O=C1C=CC(=O)c2ccccc21 [Naphthoquinone, Nafthoquinone]	+19.7%	increase the RCR by decreasing stage 4 of respiration	14.1%	46.6%	–
COc1ccc(-c2cc(=O)c3c(O)cc(O[C@@H]4O[C@H](CO[C@@H]5O[C@@H](C)[C@H](O)[C@@H](O)[C@H]5O)[C@@H](O)[C@H](O)[C@H]4O)cc3o2)cc1O [diosmin]	–	increase the RCR by decreasing stage 4 of respiration	–	–	–
aescin	–	increase the RCR by decreasing stage 4 of respiration	–	–	–
o-(hydroxyethyl) rutosides [hydroxyethylrutosides]	–	increase the RCR by increasing stage 3 of respiration	–	–	–
